Laboratory results as given in BindingDB's records for patent US20250223301 (Inventisbio Co., 2025).

What was measured:
[1] = target: Diacylglycerol kinase alpha (Homo sapiens, UniProt P23743); assay: DGK ADP-Glo Kinase Assay
Procedure: (§1) Luminescence was recorded using an Tecan SPARK microplate reader.

[2] = target: Diacylglycerol kinase zeta (Homo sapiens, UniProt Q13574); assay: DGK ADP-Glo Kinase Assay
Procedure: as §1

Diacylglycerol kinase alpha, sequence (P23743 whole entry): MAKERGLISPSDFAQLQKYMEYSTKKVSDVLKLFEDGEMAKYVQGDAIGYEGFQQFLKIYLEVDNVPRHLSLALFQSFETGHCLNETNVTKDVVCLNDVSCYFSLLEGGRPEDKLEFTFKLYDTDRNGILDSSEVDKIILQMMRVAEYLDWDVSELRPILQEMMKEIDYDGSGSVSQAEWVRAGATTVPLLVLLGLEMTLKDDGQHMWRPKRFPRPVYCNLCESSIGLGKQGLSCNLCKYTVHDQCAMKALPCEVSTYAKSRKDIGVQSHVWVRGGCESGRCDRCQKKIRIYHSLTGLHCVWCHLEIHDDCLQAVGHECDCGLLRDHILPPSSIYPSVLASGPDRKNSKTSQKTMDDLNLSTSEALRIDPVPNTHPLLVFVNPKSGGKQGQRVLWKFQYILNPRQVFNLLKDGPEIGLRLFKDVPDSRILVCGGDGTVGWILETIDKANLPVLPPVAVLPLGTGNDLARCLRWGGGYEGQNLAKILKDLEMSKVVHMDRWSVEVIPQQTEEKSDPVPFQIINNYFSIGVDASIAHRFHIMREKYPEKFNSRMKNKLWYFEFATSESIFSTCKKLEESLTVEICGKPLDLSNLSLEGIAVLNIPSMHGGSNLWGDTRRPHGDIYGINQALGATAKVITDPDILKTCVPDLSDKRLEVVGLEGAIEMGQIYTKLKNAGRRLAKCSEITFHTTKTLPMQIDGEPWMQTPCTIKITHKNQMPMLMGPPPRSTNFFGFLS
Diacylglycerol kinase zeta, sequence (Q13574 as listed by the source): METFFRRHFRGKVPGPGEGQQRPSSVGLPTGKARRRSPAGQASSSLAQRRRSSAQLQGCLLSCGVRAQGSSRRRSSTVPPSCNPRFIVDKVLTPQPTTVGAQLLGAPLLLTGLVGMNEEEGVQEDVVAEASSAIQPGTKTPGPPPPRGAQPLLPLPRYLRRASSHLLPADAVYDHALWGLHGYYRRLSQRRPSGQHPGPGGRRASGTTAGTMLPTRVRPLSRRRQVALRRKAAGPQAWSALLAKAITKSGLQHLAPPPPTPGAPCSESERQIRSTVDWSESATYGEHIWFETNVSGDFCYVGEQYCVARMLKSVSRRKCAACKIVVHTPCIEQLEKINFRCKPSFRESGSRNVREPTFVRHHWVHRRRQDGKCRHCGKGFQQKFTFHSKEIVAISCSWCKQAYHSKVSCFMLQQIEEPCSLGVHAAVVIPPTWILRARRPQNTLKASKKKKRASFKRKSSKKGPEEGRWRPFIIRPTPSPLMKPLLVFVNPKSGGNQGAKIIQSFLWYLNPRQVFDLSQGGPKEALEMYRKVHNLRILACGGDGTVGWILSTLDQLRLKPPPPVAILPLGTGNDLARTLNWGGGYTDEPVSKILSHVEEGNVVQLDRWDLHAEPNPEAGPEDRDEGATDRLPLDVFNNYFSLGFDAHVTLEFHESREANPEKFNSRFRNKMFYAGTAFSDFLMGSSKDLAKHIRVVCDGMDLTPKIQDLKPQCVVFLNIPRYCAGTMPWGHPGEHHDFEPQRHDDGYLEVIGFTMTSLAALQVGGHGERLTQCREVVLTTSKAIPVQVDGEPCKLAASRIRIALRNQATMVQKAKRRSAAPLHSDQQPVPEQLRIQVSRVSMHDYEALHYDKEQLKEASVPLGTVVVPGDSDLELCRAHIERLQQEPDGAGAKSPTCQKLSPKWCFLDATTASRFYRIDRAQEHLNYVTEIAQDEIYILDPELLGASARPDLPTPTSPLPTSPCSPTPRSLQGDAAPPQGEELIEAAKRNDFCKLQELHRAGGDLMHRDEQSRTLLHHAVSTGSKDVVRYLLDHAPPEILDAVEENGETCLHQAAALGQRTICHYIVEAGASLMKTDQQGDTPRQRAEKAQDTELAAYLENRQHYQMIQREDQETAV

## CCC(c1cccc(S(F)(F)(F)(F)F)c1)N1C[C@H](CC)N(c2nc(=O)n(C)c3ccc(C#N)nc23)C[C@H]1CC (single isomer, unassigned) [US20250223301, Compound 55]
[1]
  IC50: 0.076 µM
[2]
  IC50: 0.012 µM
